Converted amounts (≈) assume the structure as drawn.
Columns and labels:
[1] = tested on: HCT-116; test: MTT cell viability, HCT-116; type: cell-based; conditions: Homo sapiens, colon cancer, 48 h of drug treatment, average of three experiments
Excerpt: (§1) Cell culture: In this study five different cancer cell lines were used, human lung carcinoma (A549), human breast adenoma (MCF-7), Cervical carcinoma (Hela), hepatocellular carcinoma (Hep3B), and colorectal adenocarcinoma (HCT-116). These cells were obtained from the European Collection of Cell Cultures (ECACC, UK). Hep3B cells were maintained in Dulbecco's Modified Eagle Medium (DMEM: Sigma-Aldrich), and the four other cell lines were maintained in Roswell Park Memorial Institute medium (RPMI, Sigma-Aldrich, St. Louis, Mo., USA), which was supplemented with 10% fetal bovine serum (FBS, Sigma-Aldrich) and 1% penicillin/streptomycin (Sigma-Aldrich). Cells were incubated all the time at 37° C. in a humidified atmosphere of 5% CO2. Cell viability studies: Cell viability was assessed using the MTT assay as described before. In brief, all cancer cell lines were seeded at a density of 4×10^4/well in 96 well flat-bottom plates. After 24 h from seeding, cells were treated with the synthesized compounds and left for an incubation period of 48 h. Upon reaching the indicated time point, the media was removed and replaced with 200 μL fresh media containing 0.5 mg/mL of MTT tetrazolium dye (Sigma-Aldrich). Cells were then incubated with MTT solution for 2 h at 37° C. The resultant formazan crystals were dissolved in 200 μl/well of DMSO and absorbance was measured at 570 nm using a microplate reader (Thermo Scientific).

[2] = tested on: SKBR3; test: MTT cell viability, SKBR3; type: cell-based; conditions: Homo sapiens, SK-BR-3; breast cancer; 48 h of drug treatment; average of three experiments
Experimental: (§2) Cell viability studies: Cell viability was assessed using the MTT assay as described before. In brief, all cancer cell lines were seeded at a density of 4×10^4/well in 96 well flat-bottom plates. After 24 h from seeding, cells were treated with the synthesized compounds and left for an incubation period of 48 h. Upon reaching the indicated time point, the media was removed and replaced with 200 μL fresh media containing 0.5 mg/mL of MTT tetrazolium dye (Sigma-Aldrich). Cells were then incubated with MTT solution for 2 h at 37° C. The resultant formazan crystals were dissolved in 200 μl/well of DMSO and absorbance was measured at 570 nm using a microplate reader (Thermo Scientific).

[3] = tested on: MRSA-ATCC33591; test: MIC broth microdilution, MRSA ATCC33591; type: cell-based, Staphylococcus aureus; conditions: Staphylococcus aureus; overnight incubation, Mueller-Hinton broth; read-out: MIC MRSA-ATCC33591
Experimental: (§3) Antibacterial activity: The compounds were tested for the minimum inhibitory concentrations (MIC), which is the lowest concentration of a chemical required to inhibit visible microbial growth following overnight incubation. MIC values were determined using broth microdilution method according to the Clinical and Laboratory Standards Institute guidelines (CLSI, 2015, M07-A10). Mueller-Hinton broth was used as a culture medium in all the experiments. Exponentially growing bacterial cells were prepared in Mueller-Hinton broth at a concentration of approximately 5×10^5 CFU/mL. Two-fold serial dilutions of the test compound (8 concentrations ranged between 100-0.78 μg/mL) were tested. […] In each experiment, solvent (DMSO) was used as a negative control, un-treated control (composing of bacteria in Mueller-Hinton broth) was used as a growth control, blank (culture media alone) was used as sterility control. The 96-well microplate with the test compounds was incubated overnight at 37° C. Turbidity in wells indicated bacterial growth.
(§4) The compounds were tested on six MDR Gram-positive bacteria including three clinical isolates of methicillin-resistant Staphylococcus aureus (MRSA-1, MRSA-2 and MRSA-3) and three reference MRSA strains (ATCC33591, ATCC33592 and ATCC700699). They were also tested on three MDR Gram-negative bacteria including New Delhi metallo-beta-lactamase (NDM-1) positive, carbapenem-resistant E. coli (ATCC BAA2469), extended-spectrum beta-lactamase (ESBL) producing, colistin-resistant E. coli (CDC-AR-0346) and carbapenem-resistant Acinetobacter baumannii (ATCC BAA1605), in addition to two non-MDR bacteria from the same species, namely E. coli (ATCC 25922) Acinetobacter baumannii (ATCC 19606).

[4] = tested on: MDA-MB-231; test: MTT cell viability, MDA-MB-231; type: cell-based; conditions: Homo sapiens, breast cancer, 48 h of drug treatment, average of three experiments
Experimental: as §2

[5] = tested on: MRSA-2 (clinical isolate); test: MIC broth microdilution, MRSA-2; type: cell-based, Staphylococcus aureus; conditions: Staphylococcus aureus, MRSA; overnight incubation, Mueller-Hinton broth; read-out: MIC MRSA-2 (clinical isolate)
Experimental: as §3, §4

[6] = tested on: SKOV3; test: MTT cell viability, SKOV3; type: cell-based; conditions: Homo sapiens, SK-OV-3; 48 h of drug treatment; average of three experiments
Experimental: as §2

[7] = tested on: MDA-MB-468; test: MTT cell viability, MDA-MB-468; type: cell-based; conditions: Homo sapiens, breast cancer, 48 h of drug treatment, average of three experiments
Experimental: as §2

[8] = tested on: AGS; test: MTT cell viability, AGS; type: cell-based; conditions: Homo sapiens, stomach cancer, 48 h of drug treatment, average of three experiments
Experimental: as §2

[9] = tested on: MRSA-1 (clinical isolate); test: MIC broth microdilution, MRSA-1; type: cell-based, Staphylococcus aureus; conditions: Staphylococcus aureus, MRSA; overnight incubation, Mueller-Hinton broth; read-out: MIC MRSA-1 (clinical isolate)
Experimental: as §3, §4

[10] = tested on: A549; test: MTT cell viability, A549; type: cell-based; conditions: Homo sapiens, lung cancer, 48 h of drug treatment, average of three experiments
Excerpt: as §1

[11] = tested on: normal epithelial cells (HMEC); test: Cell viability, normal epithelial cells; type: cell-based; conditions: Homo sapiens, 48 h of drug treatment, average of three experiments
Experimental: as §2

[12] = tested on: MCF-7; test: MTT cell viability, MCF-7; type: cell-based; conditions: Homo sapiens, MCF7; breast cancer; 48 h of drug treatment; average of three experiments
Excerpt: as §1

[13] = tested on: Hela cells; test: Western blot, autophagy- and iron metabolism-related proteins, Hela; type: cell-based, human
Experimental: Western Blotting (autophagy- and iron metabolism-related proteins): Cells were grown in DMEM supplemented with 10% FBS and 1×PEST (Penicillin and streptomycin antibiotics) at 37° C. in incubator having humidified atmosphere with 5% CO2. The media were removed and cells were washed twice with 1× cold PBS. Cells lysis was performed with RIPA lysis buffer containing (150 mM sodium chloride, 1.0% NP-40, 0.1% SDS, 50 mM Tris pH 8.0, 0.5% sodium deoxycholate supplemented with protease inhibitors cocktail). Cells were kept on icebox during the lysis process. Cold lysis buffer was added to each well directly and then cells were scraped and collected in 1.5 ml Eppendorf tube. Cell lysis was kept on icebox for 20 minutes and then centrifuged at 4° C. for 10 minutes. The supernatant was collected and the pellet was discarded. After, protein quantification, samples were boiled in 5× loading buffer at 95° C. for 5 minutes. After completion of the gel running and transfer process, the membrane was stained with ponceau solution. After that, the membrane was washed with 1×TBST and then blocked in 5% non-fat dry milk for 1 hr at room temperature. The membrane was washed 3 times with 1×TBST and then incubated with indicated primary antibodies at 4° C. overnight. Primary antibodies were removed; the membrane was washed 3 times with 1×TBST and then incubated with secondary antibodies for 2 h at room temperature. Secondary antibodies were diluted in 5% non-fat dry milk in 1× TB ST. After removal of the secondary antibody, the membrane was washed 3 times with 1×TBST. The membrane was incubated in ECL solution and the signal was developed using Gel Doc system from Biorad.

[14] = tested on: HELA; test: MTT cell viability, HELA; type: cell-based; conditions: Homo sapiens, cervical cancer, 48 h of drug treatment, average of three experiments
Excerpt: as §1

[15] = tested on: JIMT1; test: MTT cell viability, JIMT1; type: cell-based; conditions: Homo sapiens, JIMT-1; breast cancer; 48 h of drug treatment; average of three experiments
Experimental: as §2

[16] = tested on: MRSA-ATCC33592; test: MIC broth microdilution, MRSA ATCC33592; type: cell-based, Staphylococcus aureus; conditions: Staphylococcus aureus; overnight incubation, Mueller-Hinton broth; read-out: MIC MRSA-ATCC33592
Experimental: as §3, §4

[17] = tested on: MRSA-3 (clinical isolate); test: MIC broth microdilution, MRSA-3; type: cell-based, Staphylococcus aureus; conditions: Staphylococcus aureus, MRSA; overnight incubation, Mueller-Hinton broth; read-out: MIC MRSA-3 (clinical isolate)
Experimental: as §3, §4

[18] = tested on: MRSA-ATCC700699 (VISA); test: MIC broth microdilution, MRSA ATCC700699 (VISA); type: cell-based, Staphylococcus aureus; conditions: for MIC: Staphylococcus aureus, strain intermediately resistant to vancomycin, overnight incubation, read-out: MIC MRSA-ATCC700699 (VISA)
Experimental: as §3, §4

[19] = tested on: HEP3B; test: MTT cell viability, HEP3B; type: cell-based; conditions: Homo sapiens, liver cancer, 48 h of drug treatment, average of three experiments
Excerpt: as §1

[20] = tested on: 6 MRSA strains; test: MIC, panel of 6 MRSA strains; type: cell-based; conditions: Staphylococcus aureus, across the panel of tested Gram-positive strains, read-out: MIC against all the 6 MRSA strains
Experimental: as §3, §4

[21] = tested on: Acinetobacter baumannii ATCC BAA1605 (carbapenem-resistant); test: MIC broth microdilution, A. baumannii ATCC BAA1605; type: cell-based
Experimental: as §3, §4

[22] = tested on: E. coli ATCC BAA2469 (NDM-1 carbapenem-resistant); test: MIC broth microdilution, E. coli ATCC BAA2469; type: cell-based, Escherichia coli; conditions: overnight incubation
Experimental: as §3, §4

[23] = tested on: E. coli CDC-AR-0346 (ESBL, colistin resistant); test: MIC broth microdilution, E. coli CDC-AR-0346; type: cell-based, Escherichia coli
Experimental: as §3, §4

[24] = tested on: Acinetobacter baumannii ATCC 19606; test: MIC broth microdilution, A. baumannii ATCC 19606; type: cell-based; conditions: Acinetobacter baumannii, ATCC19606; not MDR; overnight incubation
Experimental: as §3, §4

[25] = tested on: E. coli ATCC25922; test: MIC broth microdilution, E. coli ATCC25922; type: cell-based, Escherichia coli; conditions: Escherichia coli, ATCC25922; not MDR; overnight incubation
Experimental: as §3, §4

Compound	IC50 [1] [µM]	MIC [3] [µg/mL]	MIC [5] [µg/mL]	MIC [9] [µg/mL]	IC50 [10] [µM]	IC50 [12] [µM]	IC50 [14] [µM]	MIC [16] [µg/mL]	MIC [17] [µg/mL]	MIC [18] [µg/mL]	IC50 [19] [µM]	other results
O=[N+]([O-])c1ccc(N/N=C2\C=C[C@@]3(CC2)CC[C@@H]2NCCc4c2n3c2ccccc42)cc1 [Compound 1d]	2.49 ± 0.02	3.12 (≈ 7.31 µM)	3.12 (≈ 7.31 µM)	3.12 (≈ 7.31 µM)	5.22 ± 0.03	3.09 ± 0.04	3.14 ± 0.04	3.12 (≈ 7.31 µM)	3.12 (≈ 7.31 µM)	3.12 (≈ 7.31 µM)	2.32 ± 0.16	IC50 [2]: 3.93 ± 0.16 µM; IC50 [4]: 4.22 ± 0.1 µM; IC50 [6]: 6.52 ± 0.2 µM; IC50 [7]: 3.06 ± 0.17 µM; IC50 [8]: 5.37 ± 0.17 µM; IC50 [11]: 42.04 ± 0.08 µM; Expression and metabolism of autophagy marker LC3B1/II [13]: upregulate; Expression of DNA damage marker pH2AX [13]: induce; IC50 [15]: 4 ± 0.1 µM
Fc1ccc2c3c4n(c2c1)[C@@]1(C=C/C(=N\Nc2ccc(C(F)(F)F)cc2)CC1)CC[C@@H]4NCC3 [Compound 1g]	3.02 ± 1.2	1.56 (≈ 3.33 µM)	1.56 (≈ 3.33 µM)	1.56 (≈ 3.33 µM)	7.44 ± 0.04	5.34 ± 1.8	4.625 ± 0.04	1.56 (≈ 3.33 µM)	1.56 (≈ 3.33 µM)	1.56 (≈ 3.33 µM)	3.597 ± 0.03	MIC [20]: 1.56 µg/mL (≈ 3.33 µM); MIC fold below that of meropenem ([21]; Acinetobacter baumannii ATCC BAA1605, meropenem 12.5 μg/mL): 2 fold; MIC ([21]; Acinetobacter baumannii, ATCCBAA1605, MDR, overnight incubation): 6.25 µg/mL (≈ 13.3 µM); MIC ([22]; Escherichia coli, ATCCBAA2469, MDR): 6.25 to 12.5 µg/mL (≈ 13.3 to 26.7 µM); MIC E. coli ATCC BAA2469 (NDM-1 carbapenem-resistant) ([22]; MDR): 6.25 µg/mL (≈ 13.3 µM); MIC fold higher than that of colistin ([23]; E. coli CDC-AR-0346, colistin 6.25 μg/mL): 2 fold; MIC ([23]; Escherichia coli, MDR, overnight incubation): 12.5 µg/mL (≈ 26.7 µM); MIC [24]: 6.25 µg/mL (≈ 13.3 µM); MIC [25]: 6.25 µg/mL (≈ 13.3 µM); MIC times less than the MIC of vancomycin ([18]; VISA strain ATCC 700699, vancomycin 8 μg/mL): ~5 times

Source: patent US11286258B2, “Nature-inspired anticancer and antibacterial motifs and pharmaceutical composition thereof” (University of Sharjah, priority 2020, dated 2022)
